Measurements as given in US20120302584A1, “NOVEL SALTS FORMS OF PYRIMIDIN-5-YL ACETIC ACID DERIVATIVE” (BOEHRINGER INGELHEIM INTERNATIONAL GMBH, priority 2009, published 2012).
≈ marks a conversion by molar mass, not a printed value. Where a name gives a salt, the structure may show the parent alone.

What was measured:
[1] = Kinetic solubility in sodium dodecyl sulfate solution at pH 6.8 and 37° C.; format: physicochemical; details: for maximum solubility (kinetic solubility): pH 6.8, 0.2% sodium dodecyl sulfate (SDS) solution, after about 5 minutes
Procedure: FIG. 7 also depicts comparative kinetic solubility for the acid-free form of the compound of formula (I)(♦), a choline salt of the compound of formula (I)( ? ), and an ethylenediamine salt of the compound of formula (I) (▴).
After 60 minutes, the solubilities ranged from about 150 μg/mL (for the ethylenediamine salt of the compound of formula (I)) to about 245 μg/mL (for the choline salt of the compound of formula (I)).

[2] = Dynamic vapor sorption (water sorption/desorption); format: physicochemical; details: 25° C.; for hygroscopicity (in words): conditions used in this analysis
Procedure: Vapor sorption/desorption was carried out using Surface Measurement Systems DVS-HT. Samples were placed into a foil insert placed on a sample pan. […] The equilibrium point of each step was reached when 0.002% of weight change was reached.

[3] = pH 6.8, 0.2% SDS solution, after 60 minutes

Row | SMILES | maximum solubility (kinetic solubility) [1] | hygroscopicity (in words) [2] | moisture gain through 85% relative humidity [2] | solubility after 60 minutes (kinetic solubility) [1, 3] | other results
1 | CN(C)c1nc(Cc2ccc(NC(=O)c3ccc(C(F)(F)F)cc3)cc2)nc(N(C)C)c1CC(=O)O [choline salt of the compound of formula (I)] [[4,6-bis(dimethylamino)-2-(4-{[4-(trifluoromethyl)benzoyl]amino}benzyl)pyrimidin-5-yl] acetic acid, reference compound] | about 960 μg/mL | – | – | – | –
2 | CN(C)c1nc(Cc2ccc(NC(=O)c3ccc(C(F)(F)F)cc3)cc2)nc(N(C)C)c1CC(=O)O [N-methyl-D-glucamine salt of the invention] [[4,6-bis(dimethylamino)-2-(4-{[4-(trifluoromethyl)benzoyl]amino}benzyl)pyrimidin-5-yl] acetic acid] | about 910 μg/mL | mild hygroscopicity | about 3.7% | – | –
3 | CN(C)c1nc(Cc2ccc(NC(=O)c3ccc(C(F)(F)F)cc3)cc2)nc(N(C)C)c1CC(=O)O [free acid form of the compound of formula (I)] [[4,6-bis(dimethylamino)-2-(4-{[4-(trifluoromethyl)benzoyl]amino}benzyl)pyrimidin-5-yl] acetic acid] | about 50 μg/mL | – | – | essentially unchanged | –
4 | CN(C)c1nc(Cc2ccc(NC(=O)c3ccc(C(F)(F)F)cc3)cc2)nc(N(C)C)c1CC(=O)O [[4,6-bis(dimethylamino)-2-(4-{[4-(trifluoromethyl)benzoyl]amino}benzyl)pyrimidin-5-yl] acetic acid, reference compound] | – | – | – | – | solubility kinetic at 60 min ([1]; 0.2% sodium dodecyl sulfate (SDS) solution, 37 °C, pH 6.8, aqueous with cosolvent or surfactant or cyclodextrin, pH 6.8, 0.2% SDS solution, after 60 minutes): ~245 µg/mL (≈ 489 µM)
5 | CN(C)c1nc(Cc2ccc(NC(=O)c3ccc(C(F)(F)F)cc3)cc2)nc(N(C)C)c1CC(=O)O [ethylenediamine salt of the compound of formula (I)] [[4,6-bis(dimethylamino)-2-(4-{[4-(trifluoromethyl)benzoyl]amino}benzyl)pyrimidin-5-yl] acetic acid, reference compound] | – | – | – | about 150 μg/mL | maximum solubility (kinetic solubility) ([1]; listed as ethylenediame salt of the compound of formula (I)): about 670 μg/mL
6 | CN(C)c1nc(Cc2ccc(NC(=O)c3ccc(C(F)(F)F)cc3)cc2)nc(N(C)C)c1CC(=O)O [sodium salt of the invention, [4,6-bis(dimethylamino)-2-(4-{[4-(trifluoromethyl)benzoyl]amino}benzyl)pyrimidin-5-yl] acetic acid] | about 1010 μg/mL | hygroscopic | about 17% | – | moisture gain through 55% relative humidity ([2]; 55% relative humidity): less than 2%
